{"source": "patent US20060100170A1", "about": "“Isopycnic pharmaceutical formulation” (Agouron Pharmaceuticals, Inc., priority 2004, published 2006)", "key": {"[1]": {"experiment": "Drug depot below Tenon's capsule vs below the conjunctiva, retinal drug concentration", "assay_type": "in vivo, New Zealand White rabbits", "conditions": "depot on outer surface of the sclera below Tenon's capsule; measured the day after the injection; rabbit eyes", "source_text": "The sclera and Tenon's capsule define the exterior surface of the globe of the eye. For treatment of ARMD, CNV, retinopathies, retinitis, uveitis, cystoid macular edema (CME), glaucoma, and other diseases or conditions of the posterior segment of the eye, it is preferable to dispose a depot of a specific quantity of an ophthalmically acceptable pharmaceutically active agent directly on the outer surface of the sclera and below Tenon's capsule. In addition, in cases of ARMD and CME it is most preferable to dispose the depot directly on the outer surface of the sclera, below Tenon's capsule, and generally above the macula. In a study using New Zealand White rabbits, a drug depot of 4,9(11)-Pregnadien-17α,21-diol-3,20-dione-21-acetate, an angiostatic steroid available from Steraloids, Inc. of Wilton, N.H., was disposed directly on the outer surface of the sclera, below the Tenon's capsule, and slightly posterior of the equator of the rabbit eyes. […] Given the fact that the Tenon's capsule of a New Zealand White rabbit is very thin, these beneficial results are highly unexpected. It is important to note that Tenon's capsule of the human eye is also very thin. […]"}, "[2]": {"experiment": "Sucrose effect on content uniformity in the ready to use (RTU) composition", "assay_type": "physicochemical", "conditions": "ready to use composition made with sucrose from different vendors, FIG. 2", "source_text": "The concentrated sterile aqueous composition preferably comprises sucrose. The concentrated sterile aqueous composition comprises sucrose in an amount sufficient to form a stable aqueous composition of pharmaceutical agent represented by formula 1, typically about 40 to 80 weight percent sucrose based on the total weight of the composition. The concentrated sterile aqueous composition comprises sucrose in an amount ranging from a lower limit of 40, 45, 50, 55 or 60 or 65 weight percent, based on the total weight of the composition, to an upper limit of 70 or 75 or 80 weight percent, based on the total weight of the composition, with ranges from any upper limit to any lower limit being contemplated.\nFIG. 2 illustrates the sucrose effect on content uniformity in the ready to use (RTU) composition.\nThe vertical bars represent 95% Confidence Interval."}, "[3]": {"experiment": "Stability of the drug substance to light, room temperature and irradiation", "assay_type": "physicochemical", "source_text": "The pharmaceutical agent is stable following gamma irradiation at 25 kGy and is stable following e-beam irradiation at 25 kGY. The particle size distribution, calculated by means well known in the art, following jet-milling (in microns) is as follows: […]"}, "[4]": {"experiment": "Particle size distribution following jet-milling", "assay_type": "physicochemical", "source_text": "The pharmaceutical agent is stable following gamma irradiation at 25 kGy and is stable following e-beam irradiation at 25 kGY. The particle size distribution, calculated by means well known in the art, following jet-milling (in microns) is as follows:\nd10=0.5; d50=1.5; and d90=3.5; wherein for example, d50 represents 50% of the pharmaceutical agent is 1.5 microns or less in size."}}, "data": [{"smiles": "CC(=O)OCC(=O)[C@@]1(O)CC[C@H]2[C@@H]3CCC4=CC(=O)CC[C@]4(C)C3=CC[C@@]21C", "note": "[4,9(11)-Pregnadien-17α,21-diol-3,20-dione-21-acetate]", "values": [{"measurement": "concentration of the angiostatic steroid, averaged over the entire retina, relative to a depot below the conjunctiva but above the Tenon's capsule", "setting": "[1]", "result": "about ten times greater"}]}, {"smiles": "OC[C@H]1O[C@@](CO)(O[C@H]2O[C@H](CO)[C@@H](O)[C@H](O)[C@H]2O)[C@@H](O)[C@@H]1O", "note": "[Sigma, S3929 Lot 101K0105, sucrose]", "values": [{"measurement": "content uniformity", "setting": "[2]", "result": "best content uniformity"}]}, {"smiles": "Cc1cc(C(=O)Nc2cc(Nc3ccc4c(/C=C/c5ccccn5)n[nH]c4c3)ccc2F)n(C)n1", "note": "[pharmaceutical agent 1]", "values": [{"measurement": "light sensitivity", "setting": "[3]; drug substance", "result": "light insensitive"}, {"measurement": "stability following e-beam irradiation", "setting": "[3]; e-beam irradiation at 25 kGY", "result": "stable"}, {"measurement": "stability following gamma irradiation", "setting": "[3]; gamma irradiation at 25 kGy", "result": "stable"}, {"measurement": "stability at room temperature", "setting": "[3]; room temperature", "result": "stable"}, {"measurement": "particle size d10", "setting": "[4]", "result": 0.5, "unit": "microns"}, {"measurement": "particle size d50", "setting": "[4]", "result": 1.5, "unit": "microns"}, {"measurement": "particle size d90", "setting": "[4]", "result": 3.5, "unit": "microns"}]}]}
